These results are taken from US20250215029A1 (Recludix Pharma, Inc., priority 2022, published 2025).

A value given as a limit tells only on which side of the number the result lay.

The target in one assay is T1, pY641-STAT6 in PBMC (Homo sapiens, UniProt P42226).
T1 construct: Cryopreserved Peripheral Blood Mononuclear Cells (PBMC) are from AllCells; host or cells: cryopreserved PBMC
T1 sequence (P42226 1-847): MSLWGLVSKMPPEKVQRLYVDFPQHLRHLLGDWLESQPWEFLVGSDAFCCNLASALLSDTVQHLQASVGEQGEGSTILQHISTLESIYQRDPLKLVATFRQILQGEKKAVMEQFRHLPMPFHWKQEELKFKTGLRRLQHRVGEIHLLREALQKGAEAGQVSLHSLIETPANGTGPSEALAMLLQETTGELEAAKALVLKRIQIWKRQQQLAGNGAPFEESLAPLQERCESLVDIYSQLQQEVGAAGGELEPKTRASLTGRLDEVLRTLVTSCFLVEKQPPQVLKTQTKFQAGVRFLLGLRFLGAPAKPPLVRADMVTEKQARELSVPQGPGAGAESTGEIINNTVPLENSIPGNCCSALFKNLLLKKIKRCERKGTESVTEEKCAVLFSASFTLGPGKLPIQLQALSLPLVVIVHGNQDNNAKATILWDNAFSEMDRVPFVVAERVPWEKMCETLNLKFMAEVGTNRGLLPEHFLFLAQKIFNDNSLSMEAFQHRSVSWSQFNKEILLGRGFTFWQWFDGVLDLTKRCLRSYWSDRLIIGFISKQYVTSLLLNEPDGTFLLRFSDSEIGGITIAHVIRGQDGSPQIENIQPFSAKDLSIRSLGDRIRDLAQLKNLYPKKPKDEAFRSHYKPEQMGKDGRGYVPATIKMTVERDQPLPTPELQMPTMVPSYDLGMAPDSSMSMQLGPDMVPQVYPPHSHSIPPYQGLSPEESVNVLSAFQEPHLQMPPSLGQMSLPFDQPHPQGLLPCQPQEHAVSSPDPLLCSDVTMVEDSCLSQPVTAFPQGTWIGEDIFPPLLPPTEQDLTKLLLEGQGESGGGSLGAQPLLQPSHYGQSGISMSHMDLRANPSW
Nature of the assay: MSD-pSTAT-PBMC Assay (pSTAT6, IL-4 stimulated). It is filed as cell-based. The conditions noted are these: PBMC, compound 3 hrs, then 1 ng/mL IL-4 for 10 min; Table 115; read-out: STAT6. The essentials:
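PBMC (human, cryopreserved, overnight recovery) + cpd 3 hrs → IL-6 10 ng/mL (STAT3) or IL-4 1 ng/mL (STAT6) ×10 min → lysis with protease/phosphatase inhibitors → MSD capture/phospho detection. IC50, variable slope, DMSO-normalized.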
For `CC(C)(C)C(=O)SCCOP(=O)(OCCSC(=O)C(C)(C)C)C(F)(F)c1ccc2sc(C(=O)N[C@H]3CCC[C@H]4CC[C@@H](C(=O)N5C[C@@H](c6ccccc6)[C@H](C#N)C56CC6)N4C3=O)cc2c1` (single isomer, unassigned) [Compound 1080], the IC50 was below 100 nM. With `CC(C)(C)C(=O)SCCOP(=O)(OCCSC(=O)C(C)(C)C)C(F)(F)c1ccc2sc(C(=O)N[C@H]3CCC[C@H]4CC[C@@H](C(=O)N5C[C@H](c6ccccc6)[C@@H](C#N)C56CC6)N4C3=O)cc2c1` (single isomer, unassigned) [Compound 1081], the IC50 is below 100 nM.

The same assay, now with this note: STAT6, PBMC, compound 3 hrs, then 1 ng/mL IL-4 for 10 min; Table 115.
`CCCOC(=O)[C@H](C)NP(=O)(Oc1ccccc1)C(F)c1ccc2ccc(C(=O)N[C@H]3CCCC[C@H]4CC[C@@H](C(=O)N5CC(c6ccn(C)c(=O)c6)CC56CC6)N4C3=O)cc2c1` (stereo partly drawn) [Compound 440, propyl ((fluoro(7-(((3S,6S,10aS)-3-(6-(1-methyl-2-oxo-1,2-dihydropyridin-4-yl)-4-azaspiro[2.4]heptane-4-carbonyl)-5-oxodecahydropyrrolo [1,2-a]azocin-6-yl)carbamoyl)naphthalen-2-yl)methyl)(phenoxy)phosphoryl)-L-alaninate] registered an IC50 below 100 nM.

`CCCOC(=O)[C@H](C)NP(=O)(Oc1ccccc1)[C@@H](F)c1ccc2sc(C(=O)N[C@H]3CCC[C@H]4CC[C@@H](C(=O)N5C[C@@H](c6ccn(C)c(=O)c6)CC56CC6)N4C3=O)cc2c1` (stereo partly drawn) [Compound 346, propyl (((R)-fluoro(2-(((3S,6S,9aS)-3-((R)-6-(1-methyl-2-oxo-1,2-dihydropyridin-4-yl)-4-azaspiro[2.4]heptane-4-carbonyl)-5-oxooctahydro-1H-pyrrolo[1,2-a]azepin-6-yl)carbamoyl)benzo [b]thiophen-5-yl)methyl)(phenoxy)phosphoryl)-L-alaninate] returned an IC50 below 100 nM. On the same count and under the same terms, to `CCCOC(=O)[C@H](C)NP(=O)(Oc1ccccc1)C(F)c1ccc2sc(C(=O)N[C@H]3CCCC[C@H]4CC[C@@H](C(=O)N5C[C@H](c6cccnc6OC)[C@@H](C#N)C5)N4C3=O)cc2c1` (relative stereo) [Compound 322, propyl (((2-(((3S,6S,10aS)-3-((rel-trans)-3-cyano-4-(2-methoxypyridin-3-yl)pyrrolidine-1-carbonyl)-5-oxodecahydropyrrolo [1,2-a]azocin-6-yl)carbamoyl)benzo [b]thiophen-5-yl)fluoromethyl) (phenoxy)phosphoryl)-L-alaninate] belongs below 100 nM. The compound `COCCOC(=O)[C@H](C)NP(=O)(Oc1ccccc1)[C@H](F)c1ccc2sc(C(=O)N[C@H]3CCC[C@H]4CC[C@@H](C(=O)N5C[C@H](c6ccccc6)[C@@H](C#N)C56CC6)N4C3=O)cc2c1` (stereo partly drawn) [Compound 351, 2-methoxyethyl (((S)-(2-(((3S,6S,9aS)-3-((6S,7R)-7-cyano-6-phenyl-4-azaspiro[2.4]heptane-4-carbonyl)-5-oxooctahydro-1H-pyrrolo[1,2-a]azepin-6-yl)carbamoyl)benzo [b]thiophen-5-yl)fluoromethyl) (phenoxy)phosphoryl)-L-alaninate] returned an IC50 below 100 nM. Regarding `CCCOC(=O)[C@H](C)NP(=O)(Oc1ccccc1)[C@@H](F)c1ccc2sc(C(=O)N[C@H]3CCCC[C@H]4CC[C@@H](C(=O)N5C(=O)N(c6ccc(C(F)F)nc6)C(=O)C56CC6)N4C3=O)cc2c1` (stereo partly drawn) [Compound 332, propyl (((R)-(2-(((3S,6S,10aS)-3-(6-(6-(difluoromethyl)pyridin-3-yl)-5,7-dioxo-4,6-diazaspiro[2.4]heptane-4-carbonyl)-5-oxodecahydropyrrolo [1,2-a]azocin-6-yl)carbamoyl)benzo [b]thiophen-5-yl)fluoromethyl) (phenoxy)phosphoryl)-L-alaninate], the IC50 was above 3000 nM. Same read-out and setting: to `CCCOC(=O)[C@H](C)NP(=O)(Oc1ccccc1)[C@@H](F)c1ccc2sc(C(=O)N[C@H]3CCC[C@H]4CC[C@@H](C(=O)N5C[C@H](c6cncc(OC)c6)[C@@H](C#N)C56CC6)N4C3=O)cc2c1` (single isomer, unassigned) [Compound 369] belongs 1000 to 3000 nM. The same measure, in the same setting: next, `CCCOC(=O)[C@H](C)NP(=O)(Oc1ccccc1)C(F)c1ccc2ccc(C(=O)N[C@H]3CCCC[C@H]4CC[C@@H](C(=O)N5CC(c6cccnc6)CC56CC6)N4C3=O)cc2c1` (stereo partly drawn) [Compound 429, propyl ((fluoro(7-(((3S,6S,10aS)-5-oxo-3-(6-(pyridin-3-yl)-4-azaspiro[2.4]heptane-4-carbonyl)decahydropyrrolo[1,2-a]azocin-6-yl)carbamoyl)naphthalen-2-yl)methyl)(phenoxy)phosphoryl)-L-alaninate]: below 100 nM; `CCCOC(=O)[C@H](C)NP(=O)(Oc1ccccc1)[C@@H](F)c1ccc2sc(C(=O)N[C@H]3CCCC[C@H]4CC[C@@H](C(=O)N5C[C@H](c6cncc(Cl)c6)[C@@H](C#N)C56CC6)N4C3=O)cc2c1` (single isomer, unassigned) [Compound 370]: below 100 nM; `CCCOC(=O)[C@H](C)NP(=O)(Oc1ccccc1)[C@@H](F)c1ccc2sc(C(=O)N[C@H]3CCC[C@H]4CC[C@@H](C(=O)N5C[C@H](c6cncc(Cl)c6)[C@@H](C#N)C56CC6)N4C3=O)cc2c1` (single isomer, unassigned) [Compound 368]: above 3000 nM.

`CCCOC(=O)[C@H](C)N[P@@](=O)(Oc1ccccc1)[C@@H](F)c1ccc2sc(C(=O)N[C@H]3CCCC[C@H]4CC[C@@H](C(=O)N5C[C@@H](c6cccnc6)CC56CC6)N4C3=O)cc2c1` (single isomer, unassigned) [Compound 461]: the IC50 is below 100 nM. `CCCOC(=O)[C@H](C)NP(=O)(Oc1ccccc1)C(F)(F)c1ccc2ccc(C(=O)N[C@H]3CCCC[C@H]4CC[C@@H](C(=O)N5CCC(c6cccnc6)C5)N4C3=O)cc2c1` (stereo partly drawn) [Compound 312, propyl ((difluoro(7-(((3S,6S,10aS)-5-oxo-3-(3-(pyridin-3-yl)pyrrolidine-1-carbonyl)decahydropyrrolo[1,2-a]azocin-6-yl)carbamoyl)naphthalen-2-yl)methyl)(phenoxy)phosphoryl)-L-alaninate]: the IC50 is above 3000 nM. In the case of `CCCOC(=O)[C@H](C)NP(=O)(Oc1ccccc1)[C@@H](F)c1ccc2sc(C(=O)N[C@H]3C[C@@H](C)C[C@H]4CC[C@@H](C(=O)N5C[C@@H](c6cccnc6)CC56CC6)N4C3=O)cc2c1` (stereo partly drawn) [Compound 353, propyl (((R)-fluoro(2-(((3S,6S,8R,9aR)-8-methyl-5-oxo-3-((R)-6-(pyridin-3-yl)-4-azaspiro[2.4]heptane-4-carbonyl)octahydro-1H-pyrrolo[1,2-a]azepin-6-yl)carbamoyl)benzo [b]thiophen-5-yl)methyl)(phenoxy)phosphoryl)-L-alaninate], the IC50 is below 100 nM. On the same count and under the same terms, to `CCCOC(=O)[C@H](C)NP(=O)(Oc1ccccc1)C(F)c1ccc2ccc(C(=O)N[C@H]3CCCC[C@H]4CC[C@@H](C(=O)N5CCC(c6cccnc6)C5)N4C3=O)cc2c1` (stereo partly drawn) [Compound 427, propyl ((fluoro(7-(((3S,6S,10aS)-5-oxo-3-(3-(pyridin-3-yl)pyrrolidine-1-carbonyl)decahydropyrrolo[1,2-a]azocin-6-yl)carbamoyl)naphthalen-2-yl)methyl)(phenoxy)phosphoryl)-L-alaninate] belongs below 100 nM.

Consider `CCCOC(=O)[C@H](C)NP(=O)(Oc1ccccc1)[C@@H](F)c1ccc2sc(C(=O)N[C@H]3CCCC[C@H]4CC[C@@H](C(=O)N5C[C@H](c6cccc(C#N)c6)[C@@H](C#N)C56CC6)N4C3=O)cc2c1` (single isomer, unassigned) [Compound 339], for which the IC50 was below 100 nM. On the same count and under the same terms, next, `CCC(CC)COC(=O)[C@H](C)NP(=O)(Oc1ccccc1)[C@@H](F)c1ccc2sc(C(=O)N[C@H]3CCCC[C@H]4CC[C@@H](C(=O)N5C[C@@H](c6cccnc6)CC56CC6)N4C3=O)cc2c1` (stereo partly drawn) [Compound 471, 2-ethylbutyl (((R)-fluoro(2-(((3S,6S,10aS)-5-oxo-3-((R)-6-(pyridin-3-yl)-4-azaspiro[2.4]heptane-4-carbonyl)decahydropyrrolo[1,2-a]azocin-6-yl)carbamoyl)benzo [b]thiophen-5-yl)methyl)(phenoxy)phosphoryl)-L-alaninate]: below 100 nM.

The same assay, now with this note: read-out: STAT6; PBMC, compound 3 hrs, then 1 ng/mL IL-4 for 10 min; Table 115.
Consider `CCCOC(=O)[C@H](C)NP(=O)(Oc1ccccc1)C(F)c1ccc2sc(C(=O)N[C@H]3CCCC[C@H]4CC[C@@H](C(=O)N5C[C@@H](C#N)[C@H](c6ccccc6)C5)N4C3=O)cc2c1` (single isomer, unassigned) [Compound 317], for which the IC50 was below 100 nM.
